Results on nine compounds are retold here after patent US9598677B2, “Use of human biliverdin reductase and fragments thereof for the treatment of protein kinase C-delta and ERK related conditions” (University of Rochester, priority 2009, dated 2017).

Ends that are not written are not given here. * marks the point of attachment. Myristoyl = CCCCCCCCCCCCCC(=O)*

The test system of one assay is recombinant human PKC-δ. In words: PKC-δ kinase assay in vitro (p81 filter / autoradiography). Type of assay: biochemical. The note with it: for phosphorylation of variant peptides as PKC-δ substrates: FIG. 4C; for phosphate incorporated into hBVR-derived peptides by PKC-δ: 10 μM peptide, 30 min at 30° C., FIG. 6C. The procedure:
Measurement of PKC-δ activity: In vitro kinase activity assays were performed with active recombinant human PKC-δ kinase (as a GST fusion protein). PKC-δ assay in vitro was performed using 5 ng purified enzyme in a 50 μl assay containing 50 mM HEPES pH 7.4, 10 mM MgCl2, 0.2 mM DTT, sonicated lipid activators (0.5 μg phosphatidylserine and 0.05 μg diacylglycerol) or lipid activators plus PMA (as indicated in appropriate experiments) and PKC-δ substrates. The reaction was started by the addition of 50 μM ATP labeled with 5 μCi [γ-^32P]-ATP. Incubation was performed for 15 min at 30° C., unless otherwise stated. The reaction was terminated on ice, either by the addition of Laemmli buffer followed by SDS-PAGE, transferred to PVDF membrane, and autoradiography, or by the addition of 1 volume 10% phosphoric acid for p81 transfer as described below. For autophosphorylation of PKC-δ 20 μM ATP was used to start the 40-min reaction.
When hBVR or its mutants were tested for their effect on PKC-δ activity, they were pre-incubated for 5 min at room temperature with the PKC prior to substrate addition. The hBVR-derived peptides were used at concentrations indicated in appropriate figures.
When hBVR or its mutants were assayed as the sole substrates for PKC, the incubation conditions were as described above and the incubation was for 40 min at 30° C. unless specified otherwise. The reaction was terminated by the addition of Laemmli buffer, and the reaction products were detected by SDS-PAGE, transfer to PVDF membrane, and autoradiography.
Measurement of PKC-δ activity: PKC-δ assay in vitro was performed using 0.1 ng/μl purified recombinant human PKC-δ kinase with reaction conditions specified by the manufacturer. Effector molecules such as hBVR or peptides were added 5 min prior to substrate. The reaction was started by the addition of [γ-^32P]-ATP (Lerner-Marmarosh et al., “Human Biliverdin Reductase: A Member of the Insulin Receptor Substrate Family with Serine/Threonine/Tyrosine Kinase Activity,” Proc. Natl. Acad. Sci. U.S.A. 102(20):7109-7114 (2005), which is hereby incorporated by reference in its entirety). Reaction products were detected either by gel electrophoresis and autoradiography or by the p81 filter assay. PKC-δ activity on agarose beads was also measured. Cell lysates were immunoprecipitated with anti-PKC-δ antibody followed by protein A/G agarose. The immunoprecipitates were used in kinase reactions containing 50 μM PKC-δ specific peptide substrate as above; incorporation of ^32P was measured by p81 method.

Assay [1] deals with T1, PKC-δ (Homo sapiens, UniProt Q05655). In words: PKC-δ activity assay in situ in 293A cells. Type of assay: cell-based. The note with it: 20 μM, added 30 min prior to treatment, FIG. 3C. Also on record: The human PKC-δ open reading frame was also cloned in the same vectors; expressed in transfected cells; host or cells: HEK 293A. The procedure:
The PKC-δ activity assay in situ was performed by a modification of procedures detailed by Williams and Schrier (Williams et al., Glucose-Induced Protein Kinase C Activity Regulates Arachidonic Acid Release and Eicosanoid Production by Cultured Glomerular Mesangial Cells,” J. Clin. Invest. 92:2889-2896 (1993), which is hereby incorporated by reference in its entirety). Cells were seeded into 48-well plates and transfected with 0.1 μg/well pcDNA3-hBVR. After 24 h, the medium was replaced with a starvation medium (0.1% serum) and incubation continued for another 24 h to synchronize cells. In some wells, PKC inhibitor Rottlerin (20 μM) was added 30 min before addition of PMA (100 nM) for 15 min. In some wells, hBVR-derived peptides were introduced to cells in their myristoylated form. Cells were washed with medium and incubated for 10 min at 30° C. in 50 μl of kinase assay buffer (137 mM NaCl, 5.4 mM KCl, 10 mM MgCl2, 0.3 mM Na2HPO4, 0.4 mM KH2PO4, 25 mM β-glycerophosphate, 5.5 mM D-glucose, 5 mM EGTA, 1 mM CaCl2, 20 mM HEPES (pH 7.2), 50 μg/ml digitonin, 120 μg/ml of PKC-δ specific substrate (ARRKRKGSFFGG; SEQ ID NO: 52) and 100 μM ATP labeled with 10 μCi/ml [γ-^32P]-ATP). The reaction was stopped with the addition of 25 μl of ice-cold 30% (wt/vol) TCA. The TCA-soluble fraction samples were transferred to p81 phospho-cellulose filters. […]

The target in assay [2] is T1, PKC-δ. In words: PMA-induced PKC-δ membrane translocation, confocal microscopy. Type of assay: cell-based. Also on record: inserting the open reading frame of PKC-δ into the plasmid pDsRed2-C1; expressed in transfected cells; host or cells: 293A. The note with it: 10 μM myristoylated peptide, PMA 15 min, FIG. 5E. The protocol: Confocal microscopy: Experimental protocols were based on those described by Edwards et al., “Carboxyl-Terminal Phosphorylation Regulates the Function and Subcellular Localization of Protein Kinase C betall,” J. Biol. Chem. 274:6461-6468 (1999), which is hereby incorporated by reference in its entirety. 293A cells were grown in a chamber slide system (Nalge-Nunc International Corp., Naperville, Ill.). Cells were transfected with pEGFP-hBVR and/or the plasmid expressing Ds2-Red-PKC-δ fusion protein. After a 24 h starvation period, cells were fixed for 10 min in 4% Para-formaldehyde in PBS and permeabilized with 1% Triton X-100 in PBS. The cells were mounted with Vectashield (Vector Laboratories, Inc. Burlingame, Calif.), containing DAPI to visualize the nuclei. Non-transfected cells were permeabilized as above, treated with 1:150 dilution of polyclonal anti-PKC-δ antibodies, washed, blocked, and then treated with polyclonal anti-hBVR antibodies. The PBS-washed cells were then treated with Rhodamine-red-conjugated donkey anti-rabbit IgG antibodies (Jackson ImmunoResearch, West Grove, Pa.) for 30 min, followed by mounting. A Leica TCS SP (model DMRE) confocal microscope was used (Maines et al., “Human Biliverdin Reductase: A Previously Unknown Activator of Protein Kinase C-βII,” J. Biol. Chem. 282:8110-8122 (2007), which is hereby incorporated by reference in its entirety).

A further assay concerns the target T2, PKC-δ and ERK1/2 (Homo sapiens, UniProt P27361+P28482+Q05655).
T2 construct: The human PKC-δ open reading frame was amplified by PCR from a human brain cDNA library; expressed in transfected cells; host or cells: HEK293A (PKC-δ transfected; ERK1/2 endogenous)
The assay can be described thus: Co-immunoprecipitation of PKC-δ and ERK1/2 (anti-ERK1/2). The note with it: myristoylated peptide, IGF-1, FIG. 9D. Type of assay: cell-based. The procedure:
(§1) Immunoprecipitation was performed on cell lysates prepared as described previously (Lerner-Marmarosh et al., “Regulation of TNF-alpha-Activated PKC-zeta Signaling By the Human Biliverdin Reductase: Identification of Activating and Inhibitory Domains of the Reductase,” FASEB J. 21:3949-3962 (2007), which is hereby incorporated by reference in its entirety). Immunoprecipitates were separated by SDS PAGE, and the proteins blotted to nitrocellulose membrane. The antibodies used for precipitation and for probing the membranes are as described in the specific figure legends.
(§2) Cell Culture, infection, transfection, and co-immunoprecipitation: HEK293A cells were grown and transfected with pcDNA3-HA-hBVR or pcDNA3-PKC-δ plasmids using conditions described elsewhere (Kravets et al., “Biliverdin Reductase, a Novel Regulator for Induction of Activating Transcription Factor-2 and Heme Oxygenase-1,” J. Biol. Chem. 279(19):19916-19923 (2004); Maines et al., “Human Biliverdin Reductase, a Previously Unknown Activator of Protein Kinase C BetaII,” J. Biol. Chem. 282(11):8110-8122 (2007), which are hereby incorporated by reference in their entirety), and overexpression was confirmed by western blotting. […]

For a further assay, the target named is T3, hBVR and PKC-δ (Homo sapiens, UniProt Q05655).
T3 construct: The human PKC-δ open reading frame was amplified by PCR from a human brain cDNA library; expressed in transfected cells; host or cells: HEK293A
The assay can be described thus: Co-immunoprecipitation of hBVR and PKC-δ (anti-HA). The note with it: myristoylated peptide 2 h, then IGF-1, FIG. 9B. Type of assay: cell-based. The protocol:
as §1, §2

T1 sequence (Q05655 whole entry): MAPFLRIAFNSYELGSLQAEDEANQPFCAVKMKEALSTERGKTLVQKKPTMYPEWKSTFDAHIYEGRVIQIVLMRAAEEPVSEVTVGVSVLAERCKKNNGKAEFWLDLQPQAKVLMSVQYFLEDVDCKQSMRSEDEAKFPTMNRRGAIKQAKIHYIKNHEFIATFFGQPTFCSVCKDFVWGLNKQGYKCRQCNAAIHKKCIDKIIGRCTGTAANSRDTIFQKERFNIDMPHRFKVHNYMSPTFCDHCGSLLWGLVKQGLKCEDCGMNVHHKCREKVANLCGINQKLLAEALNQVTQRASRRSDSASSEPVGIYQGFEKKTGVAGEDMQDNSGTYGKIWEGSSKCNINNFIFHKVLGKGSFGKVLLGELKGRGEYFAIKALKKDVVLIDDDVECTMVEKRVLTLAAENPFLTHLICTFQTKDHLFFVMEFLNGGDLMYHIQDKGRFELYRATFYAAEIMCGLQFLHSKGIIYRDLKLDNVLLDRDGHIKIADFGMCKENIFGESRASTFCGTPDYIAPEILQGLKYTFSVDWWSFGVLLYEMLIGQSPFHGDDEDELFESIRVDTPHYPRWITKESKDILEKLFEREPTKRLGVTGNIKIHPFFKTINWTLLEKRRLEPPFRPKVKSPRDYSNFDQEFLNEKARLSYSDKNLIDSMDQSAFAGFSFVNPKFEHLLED
T3 sequence (Q05655 whole entry): as above
T2 sequence (Q05655 whole entry): as above
T2 sequence (P27361 2-379 limits assumed): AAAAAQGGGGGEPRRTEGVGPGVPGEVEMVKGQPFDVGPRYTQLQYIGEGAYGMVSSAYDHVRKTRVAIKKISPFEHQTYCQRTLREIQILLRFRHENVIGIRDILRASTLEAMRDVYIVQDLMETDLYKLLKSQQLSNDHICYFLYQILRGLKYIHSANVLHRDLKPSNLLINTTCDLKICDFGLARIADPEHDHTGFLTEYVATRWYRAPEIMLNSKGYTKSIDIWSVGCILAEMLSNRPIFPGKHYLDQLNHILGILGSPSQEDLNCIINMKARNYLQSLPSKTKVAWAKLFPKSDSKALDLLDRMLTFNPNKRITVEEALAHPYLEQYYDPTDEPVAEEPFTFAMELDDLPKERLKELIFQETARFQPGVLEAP
T2 sequence (P28482 2-360 limits assumed): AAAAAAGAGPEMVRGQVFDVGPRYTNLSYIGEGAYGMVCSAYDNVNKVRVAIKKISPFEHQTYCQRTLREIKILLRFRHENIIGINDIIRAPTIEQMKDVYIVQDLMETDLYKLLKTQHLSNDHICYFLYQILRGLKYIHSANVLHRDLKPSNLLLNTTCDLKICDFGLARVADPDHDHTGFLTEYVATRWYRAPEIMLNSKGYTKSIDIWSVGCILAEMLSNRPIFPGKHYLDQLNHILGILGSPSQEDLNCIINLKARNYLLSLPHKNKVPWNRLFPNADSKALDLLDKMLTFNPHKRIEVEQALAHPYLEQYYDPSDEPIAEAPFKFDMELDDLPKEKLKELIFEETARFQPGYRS

On to “GLKRNRYLAFHFK (BVR peptide) [aa222-234 peptide with target serine replaced by alanine]”, for which the “phosphorylation of variant peptides as PKC-δ substrates” value (shortened to “phosphorylation … as PKC-δ substrates”) in the assay with recombinant human PKC-δ is recorded as “not a substrate”.
Take `CC(=O)c1c(O)c(C)c(O)c(Cc2c(O)c3c(c(C(=O)/C=C/c4ccccc4)c2O)OC(C)(C)C=C3)c1O` [Rottlerin, reference compound]: on PKC-δ [1], the “PKC-δ activation by PMA and hBVR in cells overexpressing the kinase” value is “significant reduction”.
For “SFHFKSGSL (Myristoyl-SFHFKSGSL) [hBVR-based peptide aa230-238]”, in the assay with recombinant human PKC-δ (50 μM substrate/10 μM inhibitor, FIG. 5A), the “inhibition of phosphorylation of the commercial substrate” value is on record as “clearly differed”. In the assay with PKC-δ [2], the “PKC-δ translocation to the cell membrane upon PMA” value is given as “did not significantly affect”.
For the compound “KKRILHCLGLA (BVR peptide) [hBVR-derived D-box peptide]”, the “association of PKC-δ and ERK1/2, effect of peptide” value in the assay with PKC-δ and ERK1/2 is recorded as “failed to block”. The “association between hBVR and PKC-δ, effect of peptide” value in the assay with hBVR and PKC-δ is “slight decrease in binding”.
Turning to “aa290-296: hBVR-derived peptide containing S294 in consensus PKC phosphorylation motif (KYCCSRK; UniProt P53004 290-296, looked up, fragment)”, the “phosphate incorporated into hBVR-derived peptides by PKC-δ” value in the assay on recombinant human PKC-δ was “several fold increase”.
As for “hBVR aa18-23: hBVR-derived peptide containing S21 in consensus PKC phosphorylation motif (RAGSVR; UniProt P53004 18-23, looked up, fragment)”, in the assay with recombinant human PKC-δ, the “phosphate incorporated into hBVR-derived peptides by PKC-δ” value is “several fold increase”.
For the compound “FGFPAFSG (BVR peptide) [hBVR-derived hydrophobic (C-box) peptide]”, in the assay with PKC-δ and ERK1/2, the “association of PKC-δ and ERK1/2, effect of peptide” value is reported as “inhibitory”. Also, the “association between hBVR and PKC-δ, effect of peptide” value with hBVR and PKC-δ is “completely blocked”.
As to “GLKRNRYLAFHFKSGSL (BVR peptide) [alanine-mutant peptide (hBVR aa222-238), longer alanine-mutant peptide that includes two additional serines]”, the “phosphorylation … as PKC-δ substrates” value with recombinant human PKC-δ is “markedly decreased phosphorylation”.
For the compound “GLAANAYLSFHFK (BVR peptide) [second variant of the aa222-234 peptide, upstream lysine and arginine residues replaced by alanine]”, the “phosphorylation … as PKC-δ substrates” value in the assay on recombinant human PKC-δ is “not a substrate”.
